Test results as given in PMC7224301, “Methodology for the identification of small molecule inhibitors of the Fanconi Anaemia ubiquitin E3 ligase complex” (Scientific Reports, 2020).

Key:
[1] = tested on: FANCD2 foci in SUM149 parental cells; experiment: Nuclear FANCD2 foci formation (immunofluorescence), SUM149 parental; format: cell-based, human; details: for FANCD2 foci: 2 days exposure, DMSO = 3.80; for effect on FANCD2 foci formation: SUM149 parental cells (BRCA1-deficient), 1 µM
Method: FANCD2 foci formation is often used as an indicator of FA core complex functionality[40],[43]. Therefore, we selected 11 compounds to test at 1 µM in 384-well format for their ability to reduce FANCD2 foci formation in SUM149 parental BRCA1-deficient cells. […] An inhibitor of the FA pathway could exploit this dependency of FANCD2 activity to synergise with PARP inhibitors.
Nuclear FANCD2 foci were measured in high throughput by quantitating DAPI stained cell nuclei of either SUM149 or SUM149 B1.S* cell lines using automated confocal imaging (CX7 LZR, ThermoFisher Scientific). […] FANCD2 foci were detected with immunofluorescence using rabbit anti-human FANCD2 (abcam, ab108928).

[2] = tested on: T1, FA core complex-mediated FANCD2 mono-ubiquitination; experiment: FANCD2 mono-ubiquitination proximity assay (AlphaScreen), inhibitor format; format: biochemical, human proteins; Xenopus laevis FANCD2 and FANCI; details: at 0.3 µM
T1 construct: made in house; host or cells: High-Five insect cells (FANC-B-L-100, FANCD2-FANCI); E. coli BL21 (DE3) (UBE2T); UBE1 and ubiquitin from Boston Biochem
Description: The inhibitor assay includes recombinant ubiquitin, ubiquitin activating enzyme, FANCT, FANC-B-L-100, FANC-C-E-F, FANCI, FANCD2 and dsDNA[41] (Fig. 2a). For the activator assay, the activity stimulating adaptor complex FANC-C-E-F is omitted to give a baseline FANCD2-ubiquitination signal which enables a greater dynamic range to detect activation of the E3 ligase sub complex FANCB-L-100 (Fig. 2b,c). […] The gel-based FANCD2 mono-ubiquitination assay that we published previously[26] was modified to give a chemi-luminescent readout using a proximity assay (Materials and methods) (Fig. 1b). The purified proteins in the mono-ubiquitination assays used for the high-throughput screen are biotinylated-ubiquitin (b-ubiquitin), His-UBE1, FANCT, Flag-FANCB, FANCL, FAAP100, MBP-FANCC, FANCE, FANCF, GST-XlFANCD2 and Flag-XlFANCI. The assay was calibrated for maximal signal to background and for an optimal dynamic range within which small molecule modulators could be detected in a 384-well plate format. […]
For high-throughput screening, FANCD2 mono-ubiquitination was measured with a proximity assay (AlphaScreen, Perkin Elmer). […] The 520–620 nm signal provides a read out of FANCD2 mono-ubiquitination. […] All protein concentrations in the assay were determined by titration of each component for optimal activity (Fig. 2). […]

SUM149 cells = experiment: Synthetic lethal cell assay (SRB cell viability), BRCA1-deficient cells; format: cell-based, human; details: 10 µM, 72 h
Description: (§1) Therefore, we tested our preliminary inhibitors for the ability to kill BRCA1-deficient cells preferentially over isogenic BRCA1-proficient controls. To achieve this we exploited the triple negative breast cancer cell line SUM149[48] with a homozygous loss of function mutation in BRCA1 (c.2288delT, p.N723fsX13) and the daughter cell line, SUM149.B1.S* with one allele containing a secondary restoration of function mutation (an 80-bp BRCA1 deletion, c.[2288delT;2293del80])[49]. Twenty-five compounds were tested at 10 µM for preferential cytotoxicity in the BRCA1-deficient SUM149 (Fig. 5).
(§2) SUM149 parental cell line and SUM149 B1.S* cell lines[49] were seeded in a 96-well plate with 3000 cells per well. After 24 h, media was removed, and the cells were treated with 10 µM of each compound in triplicate in antibiotic free media and left for 72 h. Cell were fixed with 1% trichloroacetic acid and stained with sulphorhodamine B (SRB). Absorbance of wells were read at 550 nm.

SUM149.B1.S* cells = experiment: Synthetic lethal cell assay (SRB cell viability), BRCA1-proficient control cells; format: cell-based, human; details: SUM149.B1.S* (BRCA1 reversion), 10 µM, 72 h
Description: as §1, §2

T1 sequence (Q9NW38 whole entry): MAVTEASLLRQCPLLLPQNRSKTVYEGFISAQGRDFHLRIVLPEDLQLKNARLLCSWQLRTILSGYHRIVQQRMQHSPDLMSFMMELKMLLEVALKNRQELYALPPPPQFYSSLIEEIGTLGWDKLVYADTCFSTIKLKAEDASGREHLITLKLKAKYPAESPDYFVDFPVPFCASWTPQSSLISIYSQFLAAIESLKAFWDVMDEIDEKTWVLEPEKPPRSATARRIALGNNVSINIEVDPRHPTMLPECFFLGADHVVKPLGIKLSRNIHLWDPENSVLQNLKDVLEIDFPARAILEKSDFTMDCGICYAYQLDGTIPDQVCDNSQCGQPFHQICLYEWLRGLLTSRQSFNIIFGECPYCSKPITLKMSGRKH
T1 sequence (Q8NB91 whole entry, further chain): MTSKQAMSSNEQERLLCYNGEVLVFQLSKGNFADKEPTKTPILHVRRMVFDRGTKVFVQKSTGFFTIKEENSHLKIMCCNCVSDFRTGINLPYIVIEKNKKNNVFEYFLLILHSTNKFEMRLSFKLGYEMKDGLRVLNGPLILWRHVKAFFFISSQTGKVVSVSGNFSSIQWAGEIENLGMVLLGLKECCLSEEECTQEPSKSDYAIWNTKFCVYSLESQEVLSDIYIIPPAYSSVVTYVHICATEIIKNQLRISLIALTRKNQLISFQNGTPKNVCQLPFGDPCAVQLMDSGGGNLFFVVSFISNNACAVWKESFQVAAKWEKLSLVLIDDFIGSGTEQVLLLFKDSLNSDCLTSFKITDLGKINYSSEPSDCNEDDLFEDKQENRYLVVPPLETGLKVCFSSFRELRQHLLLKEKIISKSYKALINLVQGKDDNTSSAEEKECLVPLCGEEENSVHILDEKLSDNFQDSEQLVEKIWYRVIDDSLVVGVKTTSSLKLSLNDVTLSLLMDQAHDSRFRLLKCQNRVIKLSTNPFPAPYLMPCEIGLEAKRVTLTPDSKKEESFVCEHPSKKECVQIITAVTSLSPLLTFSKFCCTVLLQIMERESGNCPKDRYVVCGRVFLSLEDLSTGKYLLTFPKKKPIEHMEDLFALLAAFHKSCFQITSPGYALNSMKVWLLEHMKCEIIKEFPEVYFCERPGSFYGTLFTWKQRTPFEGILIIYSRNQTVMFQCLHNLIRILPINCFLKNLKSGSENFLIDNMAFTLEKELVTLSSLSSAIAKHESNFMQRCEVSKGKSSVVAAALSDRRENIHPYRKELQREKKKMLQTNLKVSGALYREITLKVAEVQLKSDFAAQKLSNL
T1 sequence (Q0VG06 whole entry, further chain): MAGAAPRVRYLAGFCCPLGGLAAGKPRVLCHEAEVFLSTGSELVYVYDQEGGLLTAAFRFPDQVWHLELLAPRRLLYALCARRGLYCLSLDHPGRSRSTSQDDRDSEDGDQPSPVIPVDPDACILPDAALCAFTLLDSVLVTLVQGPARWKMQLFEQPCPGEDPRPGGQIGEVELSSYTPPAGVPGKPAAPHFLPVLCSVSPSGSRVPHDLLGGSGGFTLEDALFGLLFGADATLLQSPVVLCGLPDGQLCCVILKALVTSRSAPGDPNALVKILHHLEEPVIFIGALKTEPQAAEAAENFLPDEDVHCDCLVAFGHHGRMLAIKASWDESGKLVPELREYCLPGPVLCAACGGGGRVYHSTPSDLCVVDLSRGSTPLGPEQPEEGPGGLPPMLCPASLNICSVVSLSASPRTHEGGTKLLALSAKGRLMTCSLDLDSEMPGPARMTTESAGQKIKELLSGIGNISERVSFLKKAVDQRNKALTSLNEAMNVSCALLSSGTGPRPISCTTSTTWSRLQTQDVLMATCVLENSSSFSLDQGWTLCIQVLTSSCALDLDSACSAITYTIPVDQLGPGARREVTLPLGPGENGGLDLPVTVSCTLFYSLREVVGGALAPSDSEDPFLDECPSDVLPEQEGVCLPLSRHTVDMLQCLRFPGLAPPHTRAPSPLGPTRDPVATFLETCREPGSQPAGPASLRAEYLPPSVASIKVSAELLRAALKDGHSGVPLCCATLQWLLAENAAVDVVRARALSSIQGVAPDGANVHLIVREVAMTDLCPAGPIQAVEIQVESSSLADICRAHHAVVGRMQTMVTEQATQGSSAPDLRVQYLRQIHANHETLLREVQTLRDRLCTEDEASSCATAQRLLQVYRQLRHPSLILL
T1 sequence (Q00597 whole entry, further chain): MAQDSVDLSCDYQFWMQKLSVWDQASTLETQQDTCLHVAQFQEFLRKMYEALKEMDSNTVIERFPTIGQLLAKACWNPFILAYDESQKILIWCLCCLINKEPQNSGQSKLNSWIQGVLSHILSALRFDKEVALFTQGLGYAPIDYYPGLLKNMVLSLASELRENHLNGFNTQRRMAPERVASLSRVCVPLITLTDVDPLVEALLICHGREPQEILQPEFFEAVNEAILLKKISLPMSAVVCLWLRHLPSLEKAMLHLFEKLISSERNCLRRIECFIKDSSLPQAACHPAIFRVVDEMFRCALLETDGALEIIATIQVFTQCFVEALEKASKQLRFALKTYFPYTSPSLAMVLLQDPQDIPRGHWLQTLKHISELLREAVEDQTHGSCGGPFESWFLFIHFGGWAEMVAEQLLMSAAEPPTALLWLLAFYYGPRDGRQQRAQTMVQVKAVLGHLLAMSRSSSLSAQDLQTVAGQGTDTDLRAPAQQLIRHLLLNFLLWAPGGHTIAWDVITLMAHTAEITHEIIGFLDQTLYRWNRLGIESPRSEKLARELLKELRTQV
T1 sequence (Q9HB96 whole entry, further chain): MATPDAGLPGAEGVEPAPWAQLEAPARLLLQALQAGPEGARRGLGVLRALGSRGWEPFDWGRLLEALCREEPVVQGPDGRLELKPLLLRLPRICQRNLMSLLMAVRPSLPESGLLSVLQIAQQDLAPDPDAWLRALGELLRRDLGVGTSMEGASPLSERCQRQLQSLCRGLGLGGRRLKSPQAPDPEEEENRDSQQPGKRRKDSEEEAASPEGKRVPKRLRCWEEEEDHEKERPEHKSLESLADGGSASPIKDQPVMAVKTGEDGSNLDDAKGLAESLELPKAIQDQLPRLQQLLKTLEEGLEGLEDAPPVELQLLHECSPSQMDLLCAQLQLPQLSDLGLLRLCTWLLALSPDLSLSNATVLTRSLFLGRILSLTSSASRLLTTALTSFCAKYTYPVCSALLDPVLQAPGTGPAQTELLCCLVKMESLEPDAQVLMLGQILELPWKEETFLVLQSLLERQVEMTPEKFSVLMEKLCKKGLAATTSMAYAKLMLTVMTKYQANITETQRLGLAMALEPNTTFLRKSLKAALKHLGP
T1 sequence (Q9NPI8 whole entry, further chain): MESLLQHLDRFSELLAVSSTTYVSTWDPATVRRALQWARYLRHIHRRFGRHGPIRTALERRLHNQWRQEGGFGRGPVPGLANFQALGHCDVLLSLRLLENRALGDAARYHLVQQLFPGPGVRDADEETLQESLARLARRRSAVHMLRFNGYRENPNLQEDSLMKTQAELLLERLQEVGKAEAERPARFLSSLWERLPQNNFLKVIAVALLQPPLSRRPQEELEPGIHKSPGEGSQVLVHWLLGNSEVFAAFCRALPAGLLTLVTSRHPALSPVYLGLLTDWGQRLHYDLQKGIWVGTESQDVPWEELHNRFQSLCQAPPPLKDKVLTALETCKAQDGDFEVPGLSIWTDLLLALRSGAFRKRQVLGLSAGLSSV

SMILES | FANCD2 foci ([1]; SUM149 parental cells) | effect on FANCD2 foci formation [1] | also measured
CO[C@@]12[C@H](COC(N)=O)C3=C(C(=O)C(C)=C(N)C3=O)N1C[C@@H]1N[C@@H]12 [MMC, mitomycin C] | 5.45 | – | –
NS(=O)(=O)OC[C@H]1C[C@@H](Nc2ccnc3cc(-c4cccc(SC(F)(F)F)c4)nn23)[C@H](O)[C@@H]1O [TAK243] | 0.28 | – | inhibition of the FANCD2 mono-ubiquitination reaction [2]: > 50%; toxicity in the foci assay ([1]; SUM149 parental cells): highly toxic
NC(=O)c1cccc2cn(-c3ccc([C@@H]4CCCNC4)cc3)nc12 [niraparib] | – | increased FANCD2 foci formation | –
O=C(c1cc(Cc2n[nH]c(=O)c3ccccc23)ccc1F)N1CCN(C(=O)C2CC2)CC1 [olaparib] | – | increased FANCD2 foci formation | survival (SUM149 cells): 33.3%; survival (SUM149.B1.S* cells): 78.1%
CNCc1ccc(-c2[nH]c3cc(F)cc4c3c2CCNC4=O)cc1 [rucaparib] | – | increased FANCD2 foci formation | –
C[C@]1(c2nc3c(C(N)=O)cccc3[nH]2)CCCN1 [veliparib] | – | increased FANCD2 foci formation | –
